Measurements reported in patent US20100215625A1, “EFFICIENT PREPARATION OF NAPHTHOQUINONE ANTICANCER ACTIVE INGREDIENTS” (TAHEEBO JAPAN CO., LTD., priority 2009, published 2010).

Assays:
various tumor cells = settings: known from Patent Documents 1, 2 and Nonpatent Document 1; cited from earlier work
[1] = test system: A-549 cells (lung cancer cells); experiment: Cytotoxicity experiment 1: anticancer activity against A-549 cells, viable cell count after 3 days; settings: Homo sapiens, A549, 72 h, read-out: Cell Viabilities (%) of A-549 (Lung Cancer Cells)
Description: A-549 cells (lung cancer cells; Strain No. ECACC86012804; available from Laboratory Products Dept. of Dainippon Pharmaceuticals Inc. (now Dainippon Sumitomo Pharma Co., Ltd.)) were preliminarily seeded in 35 mm petri dishes containing Dulbecco's modified Eagle medium (DMEM) containing 20% of fetal bovine serum (FBS) in a concentration of 1×10^5/ml. The seeded cells were incubated at 36° C. for 1 day under 5% CO2 and were confirmed to be stuck at the bottom of the petri dishes. The resulting A-549 cells were divided into three groups, to the first group of which were added extracts from a medium used in the ingredient-production system in concentrations of 1, 10, 100 and 1000 μg/ml, to the second group of which was added NQ801 which was known to have an anticancer activity (see Patent Document 2) in said concentrations, and to the third group of which were added ether fractions extracted from Tabebuia avellanedae barks in a conventional manner in said concentrations. These groups were incubated at 36° C. for 3 days, and viable cells were counted and viabilities were calculated.

[2] = test system: MCF-7 cells (breast cancer cells); experiment: Cytotoxicity experiment 2: anticancer activity against MCF-7 cells, viable cell count after 3 days; settings: Homo sapiens, MCF7, 72 h, read-out: Cell Viabilities (%) of MCF-7 (Breast Cancer Cells)
Description: A-549 cells (lung cancer cells; Strain No. ECACC86012804; available from Laboratory Products Dept. of Dainippon Pharmaceuticals Inc. (now Dainippon Sumitomo Pharma Co., Ltd.)) were preliminarily seeded in 35 mm petri dishes containing Dulbecco's modified Eagle medium (DMEM) containing 20% of fetal bovine serum (FBS) in a concentration of 1×10^5/ml. The seeded cells were incubated at 36° C. for 1 day under 5% CO2 and were confirmed to be stuck at the bottom of the petri dishes. […] These groups were incubated at 36° C. for 3 days, and viable cells were counted and viabilities were calculated.
Cytotoxicity experiments for MCF-7 cells (breast cancer cells; Strain No. ECACC86012803; available from Laboratory Products Dept. of Dainippon Pharmaceuticals Inc. (now Dainippon Sumitomo Pharma Co., Ltd.)) were carried out in the similar manner to the Experiment 1.

Compound: C[C@H](O)c1cc2c(o1)C(=O)c1cccc(O)c1C2=O [NQ801, (S)-2-(1-hydroxyethyl)-5-hydroxynaphtho[2,3-b]furan-4,9-dione]
- Cytotoxicity against various tumor cells (various tumor cells): potent cytotoxicity
- viability at 1 µg/mL [1]: 90%
- viability at 10 µg/mL [1]: 60%
- viability at 100 µg/mL [1]: 30%
- viability at 1000 µg/mL [1]: 0%
- viability at 1 µg/mL [2]: 90%
- viability at 10 µg/mL [2]: 60%
- viability at 100 µg/mL [2]: 20%
- viability at 1000 µg/mL [2]: 0%
